PubChem BioAssay (NCI)
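Dose response: 5 concentrations. Exposure: 48 h. Format: 96-well plates. Endpoint: linear interpolation; highest concentration if not reached. GI50 is the concentration that inhibits growth by half. TGI is the concentration that stops growth completely.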

How the values were obtained:
Test in all cases: growth of human tumour cells (NCI), 48 h
M14 melanoma = tested on: M14 melanoma
SW-620 colon = tested on: SW-620 colon
MDA-MB-231 breast = tested on: MDA-MB-231 breast
HS 578T breast = tested on: HS 578T breast
HOP-62 NSCLC = tested on: HOP-62 NSCLC
OVCAR-5 ovarian = tested on: OVCAR-5 ovarian
CCRF-CEM leukemia = tested on: CCRF-CEM leukemia
UACC-257 melanoma = tested on: UACC-257 melanoma
OVCAR-4 ovarian = tested on: OVCAR-4 ovarian
SF-539 CNS = tested on: SF-539 CNS
PC-3 prostate = tested on: PC-3 prostate
MALME-3M melanoma = tested on: MALME-3M melanoma
K-562 leukemia = tested on: K-562 leukemia
KM12 colon = tested on: KM12 colon
EKVX NSCLC = tested on: EKVX NSCLC
ACHN renal = tested on: ACHN renal
SK-MEL-5 melanoma = tested on: SK-MEL-5 melanoma
COLO 205 colon = tested on: COLO 205 colon
SF-268 CNS = tested on: SF-268 CNS
RPMI-8226 leukemia = tested on: RPMI-8226 leukemia
A498 renal = tested on: A498 renal
MDA-MB-468 breast = tested on: MDA-MB-468 breast
HCT-15 colon = tested on: HCT-15 colon
DU-145 prostate = tested on: DU-145 prostate
SNB-19 CNS = tested on: SNB-19 CNS
CAKI-1 renal = tested on: CAKI-1 renal
MCF7 breast = tested on: MCF7 breast
T-47D breast = tested on: T-47D breast
HCC-2998 colon = tested on: HCC-2998 colon
SF-295 CNS = tested on: SF-295 CNS
NCI-H522 lung = tested on: NCI-H522 lung
OVCAR-8 ovarian = tested on: OVCAR-8 ovarian
LOX IMVI melanoma = tested on: LOX IMVI melanoma
SR leukemia = tested on: SR leukemia
HCT-116 colon = tested on: HCT-116 colon
MOLT-4 leukemia = tested on: MOLT-4 leukemia
SNB-75 CNS = tested on: SNB-75 CNS
UO-31 renal = tested on: UO-31 renal
MDA-MB-435 = tested on: MDA-MB-435
UACC-62 melanoma = tested on: UACC-62 melanoma
U251 CNS = tested on: U251 CNS
NCI-H23 lung = tested on: NCI-H23 lung
NCI-H460 lung = tested on: NCI-H460 lung
BT-549 breast = tested on: BT-549 breast
SK-MEL-28 melanoma = tested on: SK-MEL-28 melanoma
SK-OV-3 ovarian = tested on: SK-OV-3 ovarian
SK-MEL-2 melanoma = tested on: SK-MEL-2 melanoma
A549 NSCLC = tested on: A549 NSCLC
NCI/ADR-RES ovarian = tested on: NCI/ADR-RES ovarian
SN12C renal = tested on: SN12C renal
RXF 393 renal = tested on: RXF 393 renal
HT29 colon = tested on: HT29 colon
786-0 renal = tested on: 786-0 renal
HOP-92 NSCLC = tested on: HOP-92 NSCLC
OVCAR-3 ovarian = tested on: OVCAR-3 ovarian
TK-10 renal = tested on: TK-10 renal
HL-60(TB) leukemia = tested on: HL-60(TB) leukemia

Cc1nc(Nc2ncc(C(=O)Nc3c(C)cccc3Cl)s2)cc(N2CCN(CCCNC(=O)COc3ccc(C4CCC(=O)NC4=O)cc3)CC2)n1 (stereo not drawn)
GI50 (M14 melanoma): > 59.2 µM | TGI (M14 melanoma): > 100 µM | GI50 (SW-620 colon): > 100 µM | TGI (SW-620 colon): > 100 µM | GI50 (MDA-MB-231 breast): 0.0256 µM | TGI (MDA-MB-231 breast): 10.6 µM | GI50 (HS 578T breast): 0.0167 µM | TGI (HS 578T breast): 0.13 µM | GI50 (HOP-62 NSCLC): 0.336 µM | TGI (HOP-62 NSCLC): > 100 µM | GI50 (OVCAR-5 ovarian): 0.191 µM | TGI (OVCAR-5 ovarian): > 100 µM | GI50 (CCRF-CEM leukemia): 34 µM | TGI (CCRF-CEM leukemia): > 100 µM | GI50 (UACC-257 melanoma): > 100 µM | TGI (UACC-257 melanoma): > 100 µM | GI50 (OVCAR-4 ovarian): > 100 µM | TGI (OVCAR-4 ovarian): > 100 µM | GI50 (SF-539 CNS): 0.0507 µM | TGI (SF-539 CNS): 4.7 µM | GI50 (PC-3 prostate): 2.43 µM | TGI (PC-3 prostate): > 100 µM | GI50 (MALME-3M melanoma): > 100 µM | TGI (MALME-3M melanoma): > 100 µM | GI50 (K-562 leukemia): < 0.01 µM | TGI (K-562 leukemia): > 100 µM | GI50 (KM12 colon): > 91.9 µM | TGI (KM12 colon): > 100 µM | GI50 (EKVX NSCLC): 1.85 µM | TGI (EKVX NSCLC): > 100 µM | GI50 (ACHN renal): 0.757 µM | TGI (ACHN renal): > 100 µM | GI50 (SK-MEL-5 melanoma): 66.7 µM | TGI (SK-MEL-5 melanoma): > 100 µM | GI50 (COLO 205 colon): 0.0695 µM | TGI (COLO 205 colon): > 100 µM | GI50 (SF-268 CNS): 0.11 µM | TGI (SF-268 CNS): > 100 µM | GI50 (RPMI-8226 leukemia): > 100 µM | TGI (RPMI-8226 leukemia): > 100 µM | GI50 (A498 renal): 2.93 µM | TGI (A498 renal): > 100 µM | GI50 (MDA-MB-468 breast): 0.172 µM | TGI (MDA-MB-468 breast): 5.16 µM | GI50 (HCT-15 colon): 9.01 µM | TGI (HCT-15 colon): > 100 µM | GI50 (DU-145 prostate): 2.3 µM | TGI (DU-145 prostate): > 100 µM | GI50 (SNB-19 CNS): > 100 µM | TGI (SNB-19 CNS): > 100 µM | GI50 (CAKI-1 renal): 0.206 µM | TGI (CAKI-1 renal): 1.83 µM | GI50 (MCF7 breast): > 100 µM | TGI (MCF7 breast): > 100 µM | GI50 (T-47D breast): 0.454 µM | TGI (T-47D breast): > 100 µM | GI50 (HCC-2998 colon): > 100 µM | TGI (HCC-2998 colon): > 100 µM | GI50 (SF-295 CNS): 6.78 µM | TGI (SF-295 CNS): > 100 µM | GI50 (NCI-H522 lung): 1.3 µM | TGI (NCI-H522 lung): > 100 µM | GI50 (OVCAR-8 ovarian): 0.934 µM | TGI (OVCAR-8 ovarian): > 52.2 µM | GI50 (LOX IMVI melanoma): 0.0182 µM | TGI (LOX IMVI melanoma): 0.218 µM | GI50 (SR leukemia): 2.8 µM | TGI (SR leukemia): > 100 µM | GI50 (HCT-116 colon): 2.5 µM | TGI (HCT-116 colon): > 92.5 µM | GI50 (MOLT-4 leukemia): 7.64 µM | TGI (MOLT-4 leukemia): > 100 µM | GI50 (SNB-75 CNS): < 0.01 µM | GI50 (UO-31 renal): 1.47 µM | TGI (UO-31 renal): > 100 µM | GI50 (MDA-MB-435): > 100 µM | TGI (MDA-MB-435): > 100 µM | GI50 (UACC-62 melanoma): > 100 µM | TGI (UACC-62 melanoma): > 100 µM | GI50 (U251 CNS): > 100 µM | TGI (U251 CNS): > 100 µM | GI50 (NCI-H23 lung): 16.9 µM | TGI (NCI-H23 lung): > 100 µM | GI50 (NCI-H460 lung): > 100 µM | TGI (NCI-H460 lung): > 100 µM | GI50 (BT-549 breast): > 100 µM | TGI (BT-549 breast): > 100 µM | GI50 (SK-MEL-28 melanoma): > 100 µM | TGI (SK-MEL-28 melanoma): > 100 µM | GI50 (SK-OV-3 ovarian): 0.505 µM | TGI (SK-OV-3 ovarian): 6.95 µM | GI50 (SK-MEL-2 melanoma): > 100 µM | TGI (SK-MEL-2 melanoma): > 100 µM | GI50 (A549 NSCLC): 2.23 µM | TGI (A549 NSCLC): > 48.1 µM | GI50 (NCI/ADR-RES ovarian): > 100 µM | TGI (NCI/ADR-RES ovarian): > 100 µM | GI50 (SN12C renal): 0.0309 µM | TGI (SN12C renal): > 100 µM | GI50 (RXF 393 renal): 0.0147 µM | TGI (RXF 393 renal): 0.081 µM | GI50 (HT29 colon): 0.181 µM | TGI (HT29 colon): 2.54 µM | GI50 (786-0 renal): 0.445 µM | TGI (786-0 renal): > 100 µM | GI50 (HOP-92 NSCLC): < 0.01 µM | TGI (HOP-92 NSCLC): 0.0498 µM | GI50 (OVCAR-3 ovarian): 0.275 µM | TGI (OVCAR-3 ovarian): > 100 µM | GI50 (TK-10 renal): 0.517 µM | TGI (TK-10 renal): 4.12 µM | GI50 (HL-60(TB) leukemia): > 79.5 µM | TGI (HL-60(TB) leukemia): > 100 µM
